Source: article PMC3265452 (PLoS Neglected Tropical Diseases, 2012)
Where a name gives a salt, the structure may show the parent alone.

Target: AaDOP2 (Aedes aegypti, UniProt H6D5H2)
Test: AaDOP2 antagonist screen of the LOPAC1280 library (HEK-CRELuc-Aadop2 cells, luminescence)
Assay type: cell-based
Conditions: not given

AaDOP2, sequence (H6D5H2 1-476): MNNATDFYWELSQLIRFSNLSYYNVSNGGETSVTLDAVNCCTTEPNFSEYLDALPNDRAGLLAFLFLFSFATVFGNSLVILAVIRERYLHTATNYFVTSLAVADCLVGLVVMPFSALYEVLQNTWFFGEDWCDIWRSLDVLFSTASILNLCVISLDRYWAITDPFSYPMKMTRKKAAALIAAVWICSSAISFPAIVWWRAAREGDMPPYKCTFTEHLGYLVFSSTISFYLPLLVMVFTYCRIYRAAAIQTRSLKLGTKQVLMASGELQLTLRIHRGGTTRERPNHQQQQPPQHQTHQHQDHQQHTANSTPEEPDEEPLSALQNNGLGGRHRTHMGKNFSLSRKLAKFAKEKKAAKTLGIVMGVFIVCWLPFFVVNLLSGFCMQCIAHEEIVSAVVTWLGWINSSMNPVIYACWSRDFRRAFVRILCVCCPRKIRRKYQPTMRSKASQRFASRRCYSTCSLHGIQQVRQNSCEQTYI

SMILES | Compound effect (percent receptor signaling in presence of test compound, relative lux units relative to the SCH23390 control)
Cc1ccc(S(=O)(=O)N[C@@H](CCCCN)C(=O)CCl)cc1.Cl [Compound 1198, Na-p-Tosyl-L-lysine chloromethyl ketone hydrochloride] | 100
N#CC(C#N)=Cc1cc(O)c(O)c(O)c1 [Compound 1199, Tyrphostin 25] | 113
FC(F)(F)c1ccccc1-n1ccnc1 [Compound 1200, 1-[2-(Trifluoromethyl)phenyl]imidazole] | 86
CC(=O)O[C@H]1C(=O)[C@@]2(C)[C@H]([C@H](OC(=O)c3ccccc3)[C@]3(O)C[C@H](OC(=O)[C@H](O)[C@@H](NC(=O)c4ccccc4)c4ccccc4)C(C)=C1C3(C)C)[C@]1(OC(C)=O)CO[C@@H]1C[C@@H]2O [Compound 1201, Taxol] | 84
CCCCNc1ccc(C(=O)OCCN(C)C)cc1 [Compound 1202, Tetracaine hydrochloride] | 78
N#C/C(=C\c1ccc(O)c(O)c1)C(N)=S [Compound 1203, Tyrphostin 47] | 61
N#CC(C#N)=C(N)/C(C#N)=C/c1cc(O)c(O)c(O)c1 [Compound 1204, Tyrphostin 51] | 122
COc1cc(/C=C(\C#N)C(=O)c2ccc(O)c(O)c2)cc(I)c1O [Compound 1206, I-OMe-Tyrphostin AG 538] | 96
N#C/C(=C\c1ccc(O)c(O)c1)C(=O)c1ccc(O)c(O)c1 [Compound 1207, Tyrphostin AG 538] | 75
COc1cc(Cc2cnc(N)nc2N)cc(OC)c1OC [Compound 1208, Trimethoprim] | 92
CNCC[C@@H](Oc1ccccc1C)c1ccccc1 [Compound 1209, Tomoxetine] | 79
COC(=O)c1c(-c2cc(OC)c(OC)c(OC)c2)c2ccnc(OCc3ncccn3)c2c(=O)n1Cc1ccnc(C)c1 [Compound 1210, T-0156] | 56
CN1[C@@H]2CC[C@H]1C[C@@H](OC(=O)c1cc(Cl)cc(Cl)c1)C2 [Compound 1211, 3-Tropanyl-3,5-dichlorobenzoate] | 97
C/C=C(/C)C(=O)O[C@H]1C(C)=C2[C@H]([C@@H]1OC(=O)CCCCCCC)[C@@](C)(OC(C)=O)C[C@H](OC(=O)CCC)[C@@]1(O)[C@H]2OC(=O)[C@@]1(C)O [Compound 1215, Thapsigargin] | 103
N#CC(C#N)=Cc1ccc([N+](=O)[O-])c(O)c1 [Compound 1216, Tyrphostin AG 126] | 100
CC/C(=C(\c1ccccc1)c1ccc(OCCN(C)C)cc1)c1ccccc1 [Compound 1217, Tamoxifen citrate] | 87
CC(C)(C)c1ccc(C(O)CCCN2CCC(C(O)(c3ccccc3)c3ccccc3)CC2)cc1 (stereo not drawn) [Compound 1218, Terfenadine] | 41
Cl.O=c1[nH]oc2c1CCNC2 [Compound 1220, THIP hydrochloride] | 95
O=C(CCCN1CCC(O)(c2cccc(C(F)(F)F)c2)CC1)c1ccc(F)cc1 [Compound 1221, Trifluperidol hydrochloride] | 68
CN1[C@@H]2CC[C@H]1CC(OC(=O)c1c[nH]c3ccccc13)C2.Cl (stereo partly drawn) [Compound 1222, 3-Tropanyl-indole-3-carboxylate hydrochloride] | 89
CCCCNc1c(C(=O)OCC)c(C)nc2c1cnn2CC [Compound 1223, Tracazolate] | 113
C[N+]1(C)C2CCC1CC(OC(=O)c1c[nH]c3ccccc13)C2.[I-] (stereo not drawn) [Compound 1224, 3-Tropanylindole-3-carboxylate methiodide] | 91

SMILES | Compound effect (percent receptor signaling in presence of test compound, relative lux units relative to the SCH23390 control)
Cc1scc2c1N(C(=O)CN1CCN(C)CC1)c1ccccc1NC2=O [Compound 1225, Telenzepine dihydrochloride] | 77
S=C(NC1CCCCC1)N1CCC(c2cnc[nH]2)CC1 [Compound 1226, Thioperamide maleate] | 90
CC(C)(C)c1cc(C=C(C#N)C#N)cc(C(C)(C)C)c1O [Compound 1230, Tyrphostin A9] | 25
CP(=O)(O)C1=CCNCC1 [Compound 1231, TPMPA] | 112
CCCCC/C=C\C[C@@H](O)/C=C/c1cccc(C[C@@H](O)CCCCO)n1 [Compound 1232, U-75302] | 107
O=c1ccn([C@@H]2O[C@H](COP(=O)([O-])OP(=O)([O-])[O-])[C@@H](O)[C@H]2O)c(=O)[nH]1.[Na+].[Na+].[Na+] [Compound 1233, Uridine 5'-diphosphate sodium] | 78
C[C@]12C=CC(=O)C=C1CC[C@@H]1C2=CC[C@]2(C)[C@@H](C(=O)CN3CCN(c4cc(N5CCCC5)nc(N5CCCC5)n4)CC3)CC[C@@H]12.O=C(O)/C=C\C(=O)O [Compound 1234, U-74389G maleate] | 88
Cc1c(C)c2c(c(C)c1O)CCC(C)(CN1CCN(c3cc(N4CCCC4)nc(N4CCCC4)n3)CC1)O2.Cl.Cl (stereo not drawn) [Compound 1235, U-83836 dihydrochloride] | 103
COc1ccc2c(c1)CC[C@@H]1[C@@H]2CC[C@]2(C)[C@@H](NCCCCCCN3C(=O)C=CC3=O)CC[C@@H]12 [Compound 1236, U-73122] | 80
O=C(O)C=Cc1c[nH]cn1 [Compound 1238, 4-Imidazoleacrylic acid] | 74
COc1ccccc1N1CCN(CCCNc2cc(=O)n(C)c(=O)n2C)CC1 [Compound 1239, Urapidil hydrochloride] | 94
COc1ccccc1N1CCN(CCCNc2c(C)c(=O)n(C)c(=O)n2C)CC1 [Compound 1240, Urapidil, 5-Methyl-] | 91
Brc1c(NC2=NCCN2)ccc2nccnc12 [Compound 1242, UK 14,304] | 87
CCCN(CCC)[C@H]1CCc2c(F)ccc(O)c2C1.Cl [Compound 1244, S(-)-UH-301 hydrochloride] | 90
CCCN(CCC)[C@@H]1CCc2c(F)ccc(O)c2C1.Cl [Compound 1245, R(+)-UH-301 hydrochloride] | 97
CCCN(CCC)C1Cc2cc(OC)c(OC)cc2C1.O=C(O)/C=C\C(=O)O [Compound 1249, U-99194A maleate] | 97
N#CC(=C(/N)Sc1ccccc1N)/C(C#N)=C(/N)Sc1ccccc1N [Compound 1250, U0126] | 108
CC[C@]1(O)C[C@@H]2CN(CCc3c([nH]c4ccccc34)[C@@](C(=O)OC)(c3cc4c(cc3OC)N(C)[C@H]3[C@@](O)(C(=O)OC)[C@H](OC(C)=O)[C@]5(CC)C=CCN6CC[C@]43[C@@H]65)C2)C1.O=S(=O)(O)O [Compound 1251, Vinblastine sulfate salt] | 118
COc1ccccc1NC(=O)Nc1nc(-c2cccnc2)nc2ccccc12 [Compound 1253, VUF 5574] | 111
CCOC(=O)C1=C[C@]2(CC)CCCN3CCc4c(n1c1ccccc41)[C@@H]32 [Compound 1254, Vinpocetine] | 148
CC[C@]1(O)C[C@H]2CN(CCc3c([nH]c4ccccc34)[C@@](C(=O)OC)(c3cc4c(cc3OC)N(C=O)[C@H]3[C@@](O)(C(=O)OC)[C@H](OC(C)=O)[C@]5(CC)C=CCN6CC[C@]43[C@@H]65)C2)C1 [Compound 1257, Vincristine sulfate] | 98

Same assay, conditions: 10 µM compound, 300 nM dopamine, 2 hr; hit = compound effect <20

SMILES | Compound effect (percent receptor signaling in presence of test compound, relative lux units relative to the SCH23390 control)
S=C([S-])OC1CC2CC1C1CCCC21.[K+] [Compound 1213, D-609 potassium] | 87%
CCN(CC)C(=O)N[C@H]1C[C@@H]2c3cccc4[nH]cc(c34)C[C@H]2N(C)C1 [Compound 1228, R(+)-Terguride] | 73%
